The experiment has as its system SW480. Kind of experiment: drug sensitivity score (DSS, integrated dose-response area); higher = more sensitive (stronger viability reduction); extreme values may be limits of the assay. The procedure, abridged:
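After 7 days of induction with 0.1 µg/mL doxycycline, SW480 cells stably harbouring inducible control or SND1-targeting shRNA were plated at 1000 cells per well in 384-well plates preloaded with 525 small-molecule inhibitors at five concentrations. CellTiter-Glo viability readings were taken 72 h later. Drug sensitivity scores come from integrating the area under a fitted non-linear dose–response model.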

Where [1] appears, read: shRNA: SND1 shRNA1 (SND1 silenced).
Setting [2] is: shRNA: SND1 shRNA2 (SND1 silenced).
The mark [3] stands for this setting: shRNA: control shRNA (non-targeting).

Our source for the drug sensitivity score values is the supplement of paper PMC9265050, “Inhibition of RNA Binding in SND1 Increases the Levels of miR-1-3p and Sensitizes Cancer Cells to Navitoclax” (Cancers, 2022).

Consider `COc1cc2ncnc(Oc3cccc(NC(=O)Nc4cc(C(C)(C)C(F)(F)F)on4)c3)c2cc1OC`, for which the drug sensitivity score runs as follows: under setting [1], 4.5 DSS; under setting [2], 0 DSS; under setting [3], 4.2 DSS.

Take `Cc1ncc(Cl)cc1NCc1ccc(C(=O)N[C@@H](CC2CCCC2)C(=O)NC2CC2)s1`: the drug sensitivity score runs as follows: under setting [1], 0 DSS; under setting [2], 0 DSS; under setting [3], 0.3 DSS.

On to `O=C(O)C(=O)O.[NH-][C@@H]1CCCC[C@H]1[NH-].[Pt+2]` [Oxaliplatin], for which the drug sensitivity score reads like this: under setting [1], 14 DSS; under setting [3], 16.7 DSS.

Regarding `CNC(=O)c1cc(Oc2ccc(NC(=O)Nc3ccc(Cl)c(C(F)(F)F)c3)c(F)c2)ccn1` [Regorafenib], the drug sensitivity score is, setting by setting: under setting [1], 7.8 DSS; under setting [2], 7.9 DSS; under setting [3], 5.1 DSS.

`O=P1(NCCCl)OCCCN1CCCl` (stereo not given) [Ifosfamide]: the drug sensitivity score by setting is: under setting [1], 0 DSS; under setting [2], 0 DSS; under setting [3], 0 DSS.

`S=C(NCc1ccc2c(c1)OCO2)N1CCN(c2ncnc3c2oc2ccccc23)CC1` [Amuvatinib]: the drug sensitivity score worked out at 3.9 DSS under setting [1], 6.4 DSS under setting [2] and 6.7 DSS under setting [3].

For the compound `O=C(O)c1ccc(O)c2ncccc12` [IOX-1], the drug sensitivity score by setting is: under setting [1], 1.7 DSS; under setting [2], 1.1 DSS; under setting [3], 0.7 DSS.

For the compound `COC1=CC(c2cc3ccccc3[nH]2)=N/C1=C\c1[nH]c(C)cc1C` [Obatoclax], the drug sensitivity score is, setting by setting: under setting [1], 2.5 DSS; under setting [2], 0 DSS; under setting [3], 0.1 DSS.

`FC(F)(F)c1ccc(/C=C/c2nc(COc3ccc(CCCCn4ccnn4)cc3)co2)cc1` [Mubritinib] gave a drug sensitivity score under setting [1] of 3.8 DSS, a drug sensitivity score under setting [2] of 9.3 DSS and a drug sensitivity score under setting [3] of 5.5 DSS.

Consider `CNc1nc(Nc2cn(C(C)(C)C#N)nc2C)ncc1C(F)(F)F` [GNE-0877], for which the drug sensitivity score was 1.6 DSS under setting [1], 0 DSS under setting [2] and 5.8 DSS under setting [3].

Consider `CN(C)C(=O)c1cc2cnc(Nc3ccc(N4CCNCC4)cn3)nc2n1C1CCCC1` [Ribociclib], for which the drug sensitivity score by setting is: under setting [1], 3.8 DSS; under setting [3], 4.9 DSS.

Turning to `CC(C)C[C@H](NC(=O)[C@H](Cc1ccccc1)NC(=O)c1cnccn1)B(O)O` [Bortezomib], the drug sensitivity score runs as follows: under setting [1], 28.8 DSS; under setting [2], 28.1 DSS; under setting [3], 28.7 DSS.

In the case of `S=P(N1CC1)(N1CC1)N1CC1` [Thio-TEPA], the drug sensitivity score under setting [1] was found to be 0 DSS, the drug sensitivity score under setting [2] came to 0 DSS and the drug sensitivity score under setting [3] stood at 0 DSS.

As to `CCn1c(=O)c(-c2cc[nH]n2)cc2c(C)nc(N)nc21` [Voxtalisib], the drug sensitivity score under setting [1] was found to be 7.4 DSS, the drug sensitivity score under setting [2] was 6.5 DSS and the drug sensitivity score under setting [3] is 5.7 DSS.

Consider `CO[C@H]1C[C@@H]2CC[C@@H](C)[C@@](O)(O2)C(=O)C(=O)N2CCCC[C@H]2C(=O)O[C@H]([C@H](C)C[C@@H]2CC[C@@H](OC(=O)C(C)(CO)CO)[C@H](OC)C2)CC(=O)[C@H](C)/C=C(\C)[C@@H](O)[C@@H](OC)C(=O)[C@H](C)C[C@H](C)/C=C/C=C/C=C/1C` [Temsirolimus], for which the drug sensitivity score is, setting by setting: under setting [1], 11.9 DSS; under setting [3], 9.5 DSS.

With `CN(C)CCOc1ccc(/C(=C(/CCCl)c2ccccc2)c2ccccc2)cc1` [Toremifene], the drug sensitivity score is, setting by setting: under setting [1], 2.6 DSS; under setting [2], 1.7 DSS; under setting [3], 3.1 DSS.

As to `O=C1NC(=O)/C(=C/c2ccc3nccc(-c4ccncc4)c3c2)S1`, the drug sensitivity score under setting [1] came to 7.6 DSS and the drug sensitivity score under setting [3] is 5.9 DSS.

Consider `CCN(c1cc(-c2ccc(CN3CCOCC3)cc2)cc(C(=O)NCc2c(C)cc(C)[nH]c2=O)c1C)C1CCOCC1` [Tazemetostat], for which the drug sensitivity score reads like this: under setting [1], 3.8 DSS; under setting [2], 0.8 DSS; under setting [3], 2.2 DSS.

`Nc1nc(NC2CC2)cc(-c2cccc(Cl)c2Cl)n1` [TH588]: the drug sensitivity score by setting is: under setting [1], 6.2 DSS; under setting [3], 6.3 DSS.

Regarding `CCOC(=O)CCNc1cc(N2CCc3ccccc3CC2)nc(-c2ccccn2)n1` [GSK-J4], the drug sensitivity score is 14 DSS under setting [1], 14.7 DSS under setting [2] and 12.3 DSS under setting [3].

Consider `Cc1nc(NC(=O)N2CCC[C@H]2C(N)=O)sc1-c1ccnc(C(C)(C)C(F)(F)F)c1` [Alpelisib], for which the drug sensitivity score reads like this: under setting [1], 2.8 DSS; under setting [2], 5.2 DSS; under setting [3], 4.3 DSS.

`COc1cc2ncnc(Nc3ccc(F)c(Cl)c3)c2cc1NC(=O)/C=C/CN1CCCCC1` [Dacomitinib] yielded a drug sensitivity score under setting [1] of 3.3 DSS, a drug sensitivity score under setting [2] of 7 DSS and a drug sensitivity score under setting [3] of 10.2 DSS.

`CCNc1nc(Nc2cc(F)c(C(=O)N3CCOCC3)cc2OC)ncc1C(F)(F)F` [GNE-7915]: the drug sensitivity score under setting [1] came out at 0 DSS, the drug sensitivity score under setting [2] turned out to be 0 DSS and the drug sensitivity score under setting [3] was determined as 1.4 DSS.

Consider `CO[C@H]1C[C@@H]2CC[C@@H](C)[C@@](O)(O2)C(=O)C(=O)N2CCCC[C@H]2C(=O)O[C@H]([C@H](C)C[C@@H]2CC[C@@H](O)[C@H](OC)C2)CC(=O)[C@H](C)/C=C(\C)[C@@H](O)[C@@H](OC)C(=O)[C@H](C)C[C@H](C)/C=C/C=C/C=C/1C` [Sirolimus], for which the drug sensitivity score under setting [1] amounted to 7.8 DSS and the drug sensitivity score under setting [3] came out at 6.9 DSS.

Regarding `Cn1nnc2c(C(N)=O)ncn2c1=O` [Temozolomide], the drug sensitivity score under setting [1] was 0 DSS, the drug sensitivity score under setting [2] amounted to 5.2 DSS and the drug sensitivity score under setting [3] was found to be 2.4 DSS.

As to `Cn1cc(C2=C(c3cn(C4CCN(Cc5ccccn5)CC4)c4ccccc34)C(=O)NC2=O)c2ccccc21` [Enzastaurin], the drug sensitivity score under setting [1] came to 4.1 DSS, the drug sensitivity score under setting [2] is 0 DSS and the drug sensitivity score under setting [3] was 1.4 DSS.

With `CN(c1ccccc1CNc1nc(Nc2ccc3c(c2)CC(=O)N3)ncc1C(F)(F)F)S(C)(=O)=O`, the drug sensitivity score is, setting by setting: under setting [1], 9.7 DSS; under setting [2], 8.3 DSS; under setting [3], 9.2 DSS.

As to `O=C(NC1CCNCC1)c1n[nH]cc1NC(=O)c1c(Cl)cccc1Cl` [AT7519], the drug sensitivity score is 10.7 DSS under setting [1], 9.1 DSS under setting [2] and 14.4 DSS under setting [3].

For the compound `Nc1ccccc1NC(=O)c1ccc(CNC(=O)OCc2cccnc2)cc1` [Entinostat], the drug sensitivity score under setting [1] was found to be 5.3 DSS, the drug sensitivity score under setting [2] is 2.6 DSS and the drug sensitivity score under setting [3] was found to be 2.8 DSS.

Take `O=C(/C=C/c1cccc(S(=O)(=O)Nc2ccccc2)c1)NO` [Belinostat]: the drug sensitivity score came to 16.4 DSS under setting [1], 13.8 DSS under setting [2] and 12.7 DSS under setting [3].

Take `C[C@]12C=CC(=O)C=C1CC[C@@H]1[C@@H]2C(=O)C[C@@]2(C)[C@H]1CC[C@]2(O)C(=O)CO` [Prednisone]: the drug sensitivity score was determined as 0.5 DSS under setting [1], 0.1 DSS under setting [2] and 2.9 DSS under setting [3].

`Nc1ncnc2c1nc(N)n2[C@@H]1O[C@H](CO)[C@@H](O)[C@H]1O` [8-amino-adenosine] had a drug sensitivity score under setting [1] of 23.6 DSS, a drug sensitivity score under setting [2] of 24.3 DSS and a drug sensitivity score under setting [3] of 22.2 DSS.
